Experimental data reported in ChEMBL document CHEMBL1128151, “Synthesis and bioactivities of heterocyclic lipids as PAF antagonists. 2” (Bioorg Med Chem Lett, 1995).
pIC50: −log10 of the molar value.

Experiments:
Mus musculus [1] = experiment: Survival ratio of ICR mice by the administration (0.3 mg/kg) along with endotoxin (55mg/Kg, ip) after 42h; type: functional
Mus musculus [2] = experiment: Survival ratio of ICR mice by the administration (0.3 mg/kg) along with endotoxin (55mg/Kg, ip) after 48 hr; type: functional
Mus musculus [3] = experiment: Survival ratio of ICR mice by the administration (0.3 mg/kg) along with endotoxin (55mg/Kg, ip) after 18 h; type: functional
Rattus norvegicus = experiment: In vivo inhibitory activity against PAF-induced hypertension in SD rats by ip administration; type: functional
Mus musculus [4] = experiment: Survival ratio of ICR mice by the administration (0.3 mg/kg) along with endotoxin (55mg/Kg, ip) after 1 hr; type: functional
Mus musculus [5] = experiment: Survival ratio of ICR mice by the administration (0.3 mg/kg) along with endotoxin (55mg/Kg, ip) after 24 hr; type: functional
Cavia porcellus [6] = experiment: In vivo inhibitory activity against PAF-induced bronchoconstriction in guinea pigs at a dose of 0.01 mg/kg; type: functional
Cavia porcellus [7] = experiment: In vivo inhibitory activity against platelet aggregation in guinea pigs; type: functional, organism-based
Mus musculus [8] = experiment: Survival ratio of ICR mice by the administration (0.3 mg/kg) along with endotoxin (55mg/Kg, ip) after 66h; type: functional
Cavia porcellus [9] = experiment: In vivo PAF-induced bronchoconstriction in guinea pigs at a dose of 0.01 mg/kg; type: functional
Mus musculus [10] = experiment: Survival ratio of ICR mice by the administration (0.3 mg/kg) along with endotoxin (55mg/Kg, ip) after 2 hr; type: functional
Mus musculus [11] = experiment: In vivo inhibitory activity (1 mg/kg) against endotoxin-induced hemoconcentration in ICR mice with endotoxin concentration of 55 mg/kg; type: functional
[12] = In vitro inhibitory activity against PAF-induced aggregation of rabbit platelets

Compound	ED50 (Rattus norvegicus) [mg/kg]	inhibition in vivo at 0.01 mg/kg (Cavia porcellus [6]) [%]	Absolute (Cavia porcellus [9]) [%]	Change (Mus musculus [11]) [%]	Change of hemoconcentration (Mus musculus [11])	other results
CCCCCCCCCCCCCCCCNC(=O)OC[C@@H]1C[C@@H](COC(=O)N(Cc2cccc[n+]2CC)C(C)=O)S1.[Cl-]	0.16	92	7	–	–	Survival ratio (Mus musculus [1]): 60; Survival ratio (Mus musculus [2]): 60; Survival ratio (Mus musculus [3]): 80; Survival ratio (Mus musculus [4]): 100; Survival ratio (Mus musculus [5]): 73; pIC50 (Cavia porcellus [7]): 7.68; Survival ratio (Mus musculus [8]): 60; Survival ratio (Mus musculus [10]): 100
CCCCCCCCCCCCCCCCCCNC(=O)OC[C@H]1C[C@H](COC(=O)N(Cc2cccc[n+]2CC)C(C)=O)C1.[I-]	0.58	87	12	–	–	Survival ratio (Mus musculus [1]): 40; Survival ratio (Mus musculus [2]): 33; Survival ratio (Mus musculus [3]): 80; Survival ratio (Mus musculus [4]): 100; Survival ratio (Mus musculus [5]): 73; pIC50 (Cavia porcellus [7]): 7.25; Survival ratio (Mus musculus [8]): 27; Survival ratio (Mus musculus [10]): 100
CCCCCCCCCCCCCCCCCCNC(=O)OC[C@H]1C[C@H](COC(=O)N(Cc2cccc[n+]2CC)C(C)=O)O1.[I-]	0.28	92	7	–	–	–
CCCCCCCCCCCCCCCCCCNC(=O)OC[C@H]1C[C@H](COC(=O)N(Cc2cccc[n+]2CC)C(C)=O)N1C(C)=O.[Cl-]	0.33	95	5	–	–	Survival ratio (Mus musculus [1]): 53; Survival ratio (Mus musculus [2]): 53; Survival ratio (Mus musculus [3]): 73; Survival ratio (Mus musculus [4]): 100; Survival ratio (Mus musculus [5]): 73; pIC50 (Cavia porcellus [7]): 7.54; Survival ratio (Mus musculus [8]): 53; Survival ratio (Mus musculus [10]): 100
CCCCCCCCCCCCCC(=O)OC(CCCCCCCCCCC)CC(=O)O[C@@H]1[C@@H](NC(=O)CC(CCCCCCCCCCC)OC(=O)CCCCCCCCCCC)[C@H](O[C@@H]2C[C@H](OC(=O)CC(O)CCCCCCCCCCC)[C@@H](NC(=O)CC(O)CCCCCCCCCCC)[C@@H](O)O2)O[C@H](CO)[C@H]1OP(=O)(O)O.CCCCCCCCCCCCCCCCCCNC(=O)OC[C@H]1C[C@H](COC(=O)N(Cc2cccc[n+]2CC)C(C)=O)C1.[I-] (stereo partly specified)	–	–	–	25	5.9	–
CCCCCCCCCCCCCC(=O)OC(CCCCCCCCCCC)CC(=O)OC1C(NC(=O)CC(CCCCCCCCCCC)OC(=O)CCCCCCCCCCC)C(OC2CC(OC(=O)CC(O)CCCCCCCCCCC)C(NC(=O)CC(O)CCCCCCCCCCC)C(O)O2)OC(CO)C1OP(=O)(O)O.CCCCCCCCCCCCCCCCCCNC(=O)OC[C@@H]1C[C@@H](COC(=O)N(Cc2cccc[n+]2CC)C(C)=O)N1C(C)=O.[Cl-] (stereo unspecified)	–	–	–	55	13.1	–
CCCCCCCCCCCCCC(=O)OC(CCCCCCCCCCC)CC(=O)OC1C(NC(=O)CC(CCCCCCCCCCC)OC(=O)CCCCCCCCCCC)C(OC2CC(OC(=O)CC(O)CCCCCCCCCCC)C(NC(=O)CC(O)CCCCCCCCCCC)C(O)O2)OC(CO)C1OP(=O)(O)O.CCCCCCCCCCCCCCCCNC(=O)OC[C@@H]1C[C@@H](COC(=O)N(Cc2cccc[n+]2CC)C(C)=O)S1.[Cl-] (stereo unspecified)	–	–	–	53	12.7	–
CCCCCCCCCCCCCC(=O)OC(CCCCCCCCCCC)CC(=O)OC1C(NC(=O)CC(CCCCCCCCCCC)OC(=O)CCCCCCCCCCC)C(OC2CC(OC(=O)CC(O)CCCCCCCCCCC)C(NC(=O)CC(O)CCCCCCCCCCC)C(O)O2)OC(CO)C1OP(=O)(O)O.CCCCCCCCCCCCCCCCCCNC(=O)OC[C@H]1C[C@H](COC(=O)N(Cc2cccc[n+]2CC)C(C)=O)O1.[I-] (stereo unspecified)	–	–	–	53	12.7	–
CCCCCCCCCCCCCC(=O)OC(CCCCCCCCCCC)CC(=O)OC1C(NC(=O)CC(CCCCCCCCCCC)OC(=O)CCCCCCCCCCC)C(OC2CC(OC(=O)CC(O)CCCCCCCCCCC)C(NC(=O)CC(O)CCCCCCCCCCC)C(O)O2)OC(CO)C1OP(=O)(O)O (stereo unspecified)	–	–	–	100	24	–
C[C@@H]1C(=O)O[C@H]2C(O)[C@@]34[C@H]5C[C@@H](C(C)(C)C)[C@]36[C@@H](OC(=O)[C@@H]6O)O[C@@]4(C(=O)O5)[C@@]12O (single isomer, unassigned) [GINKOLIDE B]	–	–	–	–	–	pIC50 [12]: 6.38
CCCCCCCCCCCCCCCCCCNC(=O)OCC(COC(=O)N(Cc1cccc[n+]1CC)C(C)=O)OC.[Cl-] (stereo unspecified) [CV-6209]	0.35	87	12	48	–	–
